# Data as given in patent US9340520B2, “Hepatitis C virus inhibitors” (Bristol-Myers Squibb Company, priority 2011, dated 2016).
# How the values were obtained:
# [1] = IV and PO single dose pharmacokinetic studies in rat; assay type: in vivo; settings: male Sprague-Dawley rats, plasma; for AUC: oral gavage 5 mg/kg, 24 h, read-out: 24 h rat PK (Auc); for bioavailability: oral gavage 5 mg/kg vs IV infusion 2 mg/kg, read-out: 24 h rat PK (oral bioavailability)
# Experimental: The pharmacokinetics of Examples 1 to 6 and Compound-A (WO2008/021927) were characterized in male Sprague-Dawley rats (260-310 g) (see Table 2). In these studies, two groups of animals (N=3 per group) received compound either as an intravenous (IV) infusion (2 mg/kg over 10 minutes) via the jugular vein or by oral gavage (5 mg/kg) in a vehicle of 100% PEG 400 or 90:5:5 PEG 400:ethanol:TPGS, respectively. The rats in the oral dosing group were fasted overnight. Serial blood samples were obtained at 0.17 (IV only), 0.25, 0.5, 0.75, 1, 2, 4, 6, 8, and 24 h post dose. Blood samples (˜0.3 mL) were collected from the jugular vein into K3EDTA-containing tubes and then centrifuged at 4° C. (1500-2000×g) to obtain plasma. Plasma samples were stored at −20° C. until analysis by LC/MS/MS.
# A bioanalytical method utilizing liquid chromatography separation followed by tandem mass spectrometry detection (LC/MS/MS) was developed for the compound analysis in rat plasma. Detection was performed using selected reaction monitoring. Ions representing the precursor (M+H)^+ species were selected in quadrupole 1 and collisionally dissociated with N2 to generate specific product ions, which were subsequently monitored by quadrupole 3. Standard curves were prepared in male rat plasma and processed in the same manner as test samples to generate quantitative data.
# Pharmacokinetic parameter values were calculated using noncompartmental methods by Kinetica. Values below the lower limit of quantification (LLOQ) were not used in calculations. Area under the curve (AUC) was calculated using the linear trapezoidal rule.
# HCV genotype 1a = assay: HCV replicon assay, genotype 1a; assay type: cell-based; settings: Hepatitis C virus; HCV replicon cells, genotype 1a wild type; read-out: EC50 G 1a wild type
# Experimental: (§1) An HCV Replicon assay was utilized in the present disclosure, and was prepared, conducted and validated as described in commonly owned PCT/US2006/022197 and in O'Boyle et. al. Antimicrob Agents Chemother. 2005 April; 49(4):1346-53. Recommended assay methods incorporating luciferase reporters have also been used as described from commercial sources (Apath.com).
# (§2) HCV-neo replicon cells and replicon cells containing resistance substitutions in the NS5A region were used to test the currently described family of compounds. The compounds were determined to have differing degrees of reduced inhibitory activity on cells containing mutations vs. the corresponding inhibitory potency against wild-type cells. Thus, the compounds of the present disclosure can be effective in inhibiting the function of the HCV NS5A protein and are understood to be as effective in combinations as previously described in application PCT/US2006/022197 and commonly owned WO/04014852. It should be understood that the compounds of the present disclosure can inhibit multiple genotypes of HCV.
# [2] = Cytotoxicity (CC50) in G 1a replicon cells; assay type: cell-based; settings: HCV G 1a replicon cells
# Experimental: as §1
# [3] = tested on: HCV genotype 1b LV/YH double resistant mutant; assay: HCV replicon assay, genotype 1b LV/YH double resistant mutant; assay type: cell-based; settings: Hepatitis C virus, read-out: EC50 G 1b LV/YH
# Experimental: as §1, §2
# [4] = tested on: genotype-1a YH single resistant mutant; assay: HCV replicon assay, genotype-1a YH single resistant mutant; assay type: cell-based; settings: Hepatitis C virus, read-out: EC50 G 1a YH
# Experimental: as §1, §2
# [5] = tested on: HCV genotype 1b wild type; assay: HCV replicon assay, genotype 1b wild type; assay type: cell-based; settings: Hepatitis C virus, HCV replicon cells, read-out: EC50 G 1b wild type
# Experimental: as §1, §2
SMILES,AUC [1],bioavailability [1],EC50 (HCV genotype 1a),CC50 [2],EC50 [3],EC50 [4],EC50 [5]
"COC(=O)N[C@H](C(=O)N1CCC[C@H]1c1nc(-c2ccc(-c3ccc(-c4c[nH]c([C@@H]5CCCN5C(=O)[C@@H](NC(=O)OC)C5CCOCC5)n4)cc3)cc2)c[nH]1)C1CCOCC1 [Compound-A, reference compound]",0.103 µM·h,1.3%,0.0511 nM,63900 nM,20 nM,13 nM,0.119 nM
COC(=O)N[C@H](C(=O)N1[C@@H](C)CC[C@H]1c1nc(-c2ccc(-c3ccc(-c4c[nH]c([C@@H]5CC[C@H](C)N5C(=O)[C@@H](NC(=O)OC)[C@H]5C[C@@H](C)O[C@@H](C)C5)n4)cc3)cc2)c[nH]1)[C@@H]1C[C@@H](C)O[C@@H](C)C1 [Example-1],1.6 µM·h,15%,0.00548 nM,8460 nM,3.19 nM,0.977 nM,0.00396 nM
"COC(=O)N[C@H](C(=O)N1[C@@H](C)CC[C@H]1c1nc(-c2ccc(-c3ccc(-c4c[nH]c([C@@H]5CC[C@H](C)N5C(=O)[C@@H](NC(=O)OC)C5C[C@@H](C)O[C@H](C)C5)n4)cc3)cc2)c[nH]1)C1C[C@@H](C)O[C@H](C)C1 (stereo partly drawn) [Example-2, Dimethyl(4,4′-biphenyldiylbis(1H-imidazole-4,2-diyl((2S,5S)-5-methyl-2,1-pyrrolidinediyl)((1S)-1-((2R,6R)-2,6-dimethyltetrahydro-2H-pyran-4-yl)-2-oxo-2,1-ethanediyl)))biscarbamate]",2.22 µM·h,12%,0.00643 nM,5890 nM,0.115 nM,0.158 nM,0.00803 nM
COC(=O)N[C@H](C(=O)N1[C@@H](C)CC[C@H]1c1nc(-c2ccc(-c3ccc(-c4c[nH]c([C@@H]5CC[C@H](C)N5C(=O)[C@@H](NC(=O)OC)C5C[C@@H](C)O[C@H](C)C5)n4)c(C)c3)cc2)c[nH]1)C1C[C@@H](C)O[C@H](C)C1 (stereo partly shown) [Example-3],4.49 µM·h,17%,0.0052 nM,6150 nM,0.191 nM,1.08 nM,0.00641 nM
COC(=O)N[C@H](C(=O)N1[C@@H](C)CC[C@H]1c1nc(-c2ccc(-c3ccc(-c4c[nH]c([C@@H]5CC[C@H](C)N5C(=O)[C@@H](NC(=O)OC)C5C[C@@H](C)O[C@H](C)C5)n4)c(F)c3)cc2)c[nH]1)C1C[C@@H](C)O[C@H](C)C1 (stereo partly shown) [Example-4],1.73 µM·h,16%,0.00595 nM,7750 nM,0.436 nM,0.402 nM,0.00415 nM
COC(=O)N[C@H](C(=O)N1[C@H](c2nc(-c3ccc(-c4ccc(-c5c[nH]c([C@@H]6C[C@@]7(C)C[C@H]7N6C(=O)[C@@H](NC(=O)OC)C6C[C@@H](C)O[C@H](C)C6)n5)cc4)cc3)c[nH]2)C[C@@]2(C)C[C@@H]12)C1C[C@@H](C)O[C@H](C)C1 (stereo partly shown) [Example-5],0.539 µM·h,6.3%,0.00372 nM,5340 nM,0.00985 nM,0.0607 nM,0.00685 nM
COC(=O)N[C@H](C(=O)N1CCC[C@H]1c1nc(-c2ccc(-c3ccc(-c4c[nH]c([C@@H]5CCCN5C(=O)[C@@H](NC(=O)OC)C5C[C@@H](C)O[C@H](C)C5)n4)cc3)cc2)c[nH]1)C1C[C@@H](C)O[C@H](C)C1 (stereo partly shown) [Example-6],1.36 µM·h,5%,0.0162 nM,15400 nM,0.659 nM,0.383 nM,0.0367 nM
